Measured values from patent US8912338B2, “Pesticidal compositions” (Dow AgroSciences LLC, priority 2010, dated 2014).

How the values were obtained:
[1] = tested on: Cotton Aphid (Aphis gossypii); experiment: Insecticidal test for cotton aphid in a foliar spray assay; type: in vivo; conditions: 72 h, 200 ppm foliar spray on squash or cotton seedlings, live aphids counted after three days, Abbott's corrected % control, read-out: APHIGO % Ctrl @ 200 ppm
Procedure: Squash or cotton seedlings with fully expanded cotyledon leaves were trimmed to one cotyledon per plant and infested with wingless adult and nymph stage cotton aphid (APHIGO) one day prior to chemical application. Each plant was examined before chemical application to ensure uniform infestation (ca. 30-70 aphids per plant). Compounds (2 mg) were dissolved in 2 mL of acetone/methanol (1:1) solvent, forming stock solutions of 1000 ppm. The stock solutions were diluted 5× with 0.025% Tween 20 in H2O to obtain a solution at 200 ppm. A hand-held Devilbiss aspirator type sprayer was used to apply the spray solutions until runoff to both sides of the squash cotyledon leaves. Four plants (4 replications) were used for each concentration of each compound. Reference plants (solvent check) were sprayed with the diluent only. Treated plants were held in a holding room for three days at approximately 25° C. and 40% RH before the number of live cotton aphids on each plant was recorded. Insecticidal activity data presented in Table 3 were generated by using Abbott's correction formula: Corrected%Control=100*(X−Y)/X • where X=No. of live aphids on solvent check plants • Y=No. of live aphids on treated plants

[2] = tested on: Green Peach Aphid (Myzus persicae); experiment: Insecticidal test for green peach aphid in foliar spray assay; type: in vivo; conditions: 72 h, 200 ppm foliar spray on cabbage seedlings, live aphids counted after three days, Abbott's corrected % control, read-out: MYZUPE % Ctrl @ 200 ppm
Procedure: Certain molecules disclosed in this document were tested against MYZUPE using procedures described in the following example. In the reporting of the results, the “MYZUPE, APHIGO and BEMITA Rating Table” was used (See Table Section).
Cabbage seedlings grown in 3-inch pots, with 2-3 small (3-5 cm) true leaves, were used as test substrate. The seedlings were infested with 20-50 green peach aphids (wingless adult and nymph stage) one day prior to chemical application. Four pots with individual seedlings were used for each treatment. Compounds (2 mg) were dissolved in 2 mL of acetone/methanol (1:1) solvent, forming stock solutions of 1000 ppm. The stock solutions were diluted 5× with 0.025% Tween 20 in H2O to obtain the test solution at 200 ppm. A hand-held Devilbiss sprayer was used for spraying a solution to both sides of cabbage leaves until runoff. Reference plants (solvent check) were sprayed with the diluent only. Treated plants were held in a holding room for three days at approximately 25° C. and 40% relative humidity (RH) prior to grading. Evaluation was conducted by counting the number of live aphids per plant under a microscope. Insecticidal activity data presented in Table 3 were generated by using Abbott's correction formula: Corrected%Control=100*(X−Y)/X • where X=No. of live aphids on solvent check plants • Y=No. of live aphids on treated plants

[3] = tested on: Sweetpotato Whitefly (Bemisia tabaci); experiment: Insecticidal test for sweetpotato whitefly in foliar spray assay; type: in vivo; conditions: 200 ppm foliar spray on cotton plants infested with eggs, live nymphs counted after 8-9 days, Abbott's corrected % control, read-out: BEMITA % Ctrl @ 200 ppm
Procedure: Cotton plants were used as test substrate and were grown in 3-inch pots and pruned until only 1 small (3-5 cm) true leaf remained. The plants were then placed in a room with whitefly ([…]) adults and allowed to be infested with eggs. After a 2-3 day egg-laying period, plants were taken from the adult whitefly room and the adults were removed from the leaves using compressed air delivered through a hand-held Devilbiss sprayer (23 psi). Plants infested with eggs (100-300 eggs per plant) were placed in a controlled-environment room for 5-6 days at 82° F. and 50% RH until approximately 50% egg hatch. Four cotton plants (4 replicates) were used for each treatment. Compounds (2 mg) were dissolved in 1 mL of acetone solvent, forming stock solutions of 2000 ppm. The stock solutions were diluted 10× with 0.025% Tween 20 in H2O to obtain the test solution of 200 ppm. A hand-held Devilbiss sprayer was used for spraying a solution to both sides of cotton leaf until runoff. Reference plants (solvent check) were sprayed with the diluent only. Treated plants were held in a holding room for 8-9 days at approximately 82° F. and 50% RH prior to grading. Evaluation was conducted by counting the number of live nymphs per plant under a microscope. Insecticidal activity data presented in Table 3 were generated by using Abbott's correction formula: Corrected%Control=100*(X-Y)/X • where X=No. of live nymphs on solvent check plants • Y=No. of live nymphs on treated plants […]

Row | melting point | Structure (SMILES) | inhibition at 200 ppm [1] | inhibition at 200 ppm [2] | inhibition at 200 ppm [3]
1 | 102 to 105 °C | CN(C(=O)C(C)(C)CO[Si](C)(C)C(C)(C)C)c1nnc(-c2cncc(F)c2)s1 |  |  | 
2 |  | CN(C(=O)CCSc1ccccc1)c1nnc(-c2cccnc2)s1 [Compound 10] | 0 to 80% | 80 to 100% | 
3 |  | CCSC(C)CC(=O)N(C)c1nnc(-c2cccnc2)s1 (stereo not shown) [Compound 13] | 80 to 100% | 80 to 100% | 0 to 80%
4 | 127 to 132 °C | CCOC(=O)Nc1nnc(-c2cccnc2)s1 [Compound 14] | 0 to 80% | < 0% | 
5 | 162 to 164 °C | CCOC(=O)N(C)c1nnc(-c2cccnc2)s1 [Compound 15] | 0 to 80% | < 0% | 
6 |  | COCCOC(=O)N(C)c1nnc(-c2cccnc2)s1 [Compound 16] | 80 to 100% | 0 to 80% | 
7 |  | CCSCC(C)(C)C(=O)N(C)c1nnc(-c2cccnc2)s1 [Compound 17] | 80 to 100% | 80 to 100% | 0 to 80%
8 |  | CS/C=C/C(=O)N(C)c1nnc(-c2cccnc2)s1 [Compound 21, (E)-N-methyl-3-(methylthio)-N-(5-(pyridin-3-yl)-1,3,4-thiadiazol-2-yl)acrylamide] | 0 to 80% | 80 to 100% | 
9 | 60 to 75 °C | CN(C(=O)CCSC(c1ccccc1)(c1ccccc1)c1ccccc1)c1nnc(-c2cccnc2)s1 [Compound 22, N-methyl-N-(5-(pyridin-3-yl)-1,3,4-thiadiazol-2-yl)-3-(tritylthio)propanamide] | < 0% | 0 to 80% | 
10 | 155 to 159 °C | CN(C(=O)CCNC#N)c1nnc(-c2cccnc2)s1 [Compound 23, 3-(cyanoamino)-N-methyl-N-[5-(3-pyridyl)-1,3,4-thiadiazol-2-yl]propanamide] | 80 to 100% | 80 to 100% | 
11 | 149 to 151 °C | CN(C(=O)CCS)c1nnc(-c2cccnc2)s1 [Compound 25, 3-mercapto-N-methyl-N-(5-(pyridin-3-yl)-1,3,4-thiadiazol-2-yl)propanamide] | 80 to 100% | 80 to 100% | 
12 | 133 to 135 °C | CC(=O)SCCC(=O)N(C)c1nnc(-c2cccnc2)s1 [Compound 26, S-3-(methyl(5-(pyridin-3-yl)-1,3,4-thiadiazol-2-yl)-amino)-3-oxopropyl ethanethioate] | 0 to 80% | 0 to 80% | 
13 |  | CN(C(=O)CCSC(F)(F)F)c1nnc(-c2cccnc2)s1 [Compound 27, N-methyl-N-(5-(pyridin-3-yl)-1,3,4-thiadiazol-2-yl)-3-(trifluoromethylthio)propanamide] | 80 to 100% | 0 to 80% | 
14 |  | CSCC(C)C(=O)N(C)c1nnc(-c2cccnc2)s1 (stereo not shown) [Compound 28, N-2-Dimethyl-3-(methylthio)-N-(5-(pyridin-3-yl)-1,3,4-thiadiazol-2-yl)propanamide] | 80 to 100% | 80 to 100% | 0 to 80%
15 |  | CN(C(=O)CCNC(=O)OCc1ccccc1)c1nnc(-c2cccnc2)s1 [Compound 30] | 0 to 80% | < 0% | 
16 |  | CN(CCC(=O)N(C)c1nnc(-c2cccnc2)s1)C(=O)OCc1ccccc1 [Compound 31] | < 0% | < 0% | 
17 |  | CN(C(=O)C(C)(C)C[S+](C)[O-])c1nnc(-c2cccnc2)s1 (stereo not shown) [Compound 32] | 80 to 100% | 80 to 100% | 80 to 100%
18 |  | CN(C(=O)C(C)(C)CS(C)(=O)=O)c1nnc(-c2cccnc2)s1 [Compound 33] | 80 to 100% | 80 to 100% | 0 to 80%

Row | melting point | Structure (SMILES) | inhibition at 200 ppm [1] | inhibition at 200 ppm [2] | inhibition at 200 ppm [3]
19 | 182 to 188 °C | CSCC(C)(C)C(=O)Nc1nnc(-c2cccnc2)s1 [Compound 35] | 80 to 100% | 0 to 80% | 
20 |  | CC(C)(CS(C)(=O)=O)C(=O)Nc1nnc(-c2cccnc2)s1 [Compound 36] | 80 to 100% | 0 to 80% | 
21 | 198 to 201 °C | CN(C(=O)CCS(=O)(=O)Cc1ccccc1)c1nnc(-c2cccnc2)s1 [Compound 40] | < 0% | < 0% | 
22 | 110 to 112 °C | CN(C(=O)CCN)c1nnc(-c2cccnc2)s1 [Compound 41, 3-amino-N-methyl-N-(5-(pyridin-3-yl)-1,3,4-thiadiazol-2-yl)propanamide] | 80 to 100% | 0 to 80% | 
23 |  | CSCCCN(C(C)=O)c1nnc(-c2cccnc2)s1 [Compound 47] | 0 to 80% | < 0% | 
24 | 198 to 200 °C | CN(C(=O)OCCS(C)(=O)=O)c1nnc(-c2cccnc2)s1 [Compound 52] | 0 to 80% | 0 to 80% | 
25 |  | CSCOC(=O)N(C)c1nnc(-c2cccnc2)s1 [Compound 54, methylthiomethyl methyl(5-(pyridin-3-yl)-1,3,4-thiadiazol-2-yl)carbamate] | 0 to 80% | < 0% | 
26 | 192 to 194 °C | CSC(=O)N(C)c1nnc(-c2cccnc2)s1 [Compound 55, S-methyl methyl(5-(pyridin-3-yl)-1,3,4-thiadiazol-2-yl)carbamothioate] | 0 to 80% | < 0% | 
27 |  | CSCC(Cc1ccccc1)C(=O)N(C)c1nnc(-c2cccnc2)s1 (stereo not shown) [Compound 57] | 0 to 80% | 0 to 80% | 
28 | 117 to 120 °C | CSCCC(=O)N(c1ccccc1)c1nnc(-c2cccnc2)s1 [Compound 58] | < 0% |  | 
29 | 152 to 155 °C | COC(=O)CCC(=O)N(c1ccccc1)c1nnc(-c2cccnc2)s1 [Compound 59] | 0 to 80% | < 0% | 
30 |  | CSCCC(=O)N(C)c1nnc(-c2cnccc2C(F)(F)F)s1 [Compound 60] | 0 to 80% | < 0% | 
31 |  | CSCCN(C)C(=O)N(C)c1nnc(-c2cncc(F)c2)s1 [Compound 83, 1-[5-(5-fluoro-pyridin-3-yl)-[1,3,4]thiadiazol-2-yl]-1,3-dimethyl-3-(2-methylsulfanyl-ethyl)-urea] |  | 80 to 100% | 0 to 80%
32 |  | CSCCNC(=S)N(C)c1nnc(-c2cncc(F)c2)s1 [Compound 86, 1-[5-(5-fluoro-pyridin-3-yl)-[1,3,4]thiadiazol-2-yl]-1-methyl-3-(2-methylsulfanyl-ethyl)-thiourea] |  | 80 to 100% | 80 to 100%
33 |  | CCOC(=O)N(C)c1nnc(-c2cncc(F)c2)s1 [Compound 87] |  |  | 80 to 100%
34 | 152 to 154 °C | CSCCC(=O)N(C)c1nnc(-c2ccncc2)s1 [Compound 96] | 0 to 80% |  | 
35 | 175 to 177 °C | COC(=O)CCC(=O)N(C)c1nnc(-c2ccncc2)s1 [Compound 97] | 0 to 80% | < 0% | 
36 |  | CSCCC(=O)N(CC1CC1)c1nnc(-c2cccnc2)s1 [Compound 98] |  | 80 to 100% | < 0%
